Assay results published in patent publication US20200331950A1, “SGLTS INHIBITOR AND APPLICATION THEREOF” (SHANDONG DANHONG PHARMACEUTICAL CO., LTD., priority 2018, published 2020).
Marks after values point to notes of the source that are not given here.

Key:
SD rats = assay: Oral glucose tolerance test (OGTT) in rats, first time; assay type: in vivo; conditions: first study, male SD rats, 10 mg/kg single intragastric administration; for OGTT blood glucose level AUC0-2 hr: glucose 2 g/kg; for Urine glucose level / Urine volume: urine 0-24 h
Description: Experimental Example 3. Study on In Vivo Efficacy of Oral Glucose Tolerance Test (OGTT) in Rats: Study on the In Vivo Efficacy of Oral Glucose Tolerance Test (OGTT) in Rats for the First Time
The experimental animals were allowed to adapt to the environment in the animal room for one week after they arrived.
The animals fasted in the metabolic cage for 18 hours, then were given drugs or vehicle (2 ml/kg) according to the above table, and subsequently were immediately given 50% glucose solution (2 g/kg, 4 ml/kg).
2 hours after the administration of glucose solution, feed intake was restored. Blood samples were taken at 0 min, 15 min, 30 min, 45 min, 60 min and 120 min respectively, and urine samples were collected at 0-24 h to test blood glucose, urine glucose (mg/200 g) and urine volume respectively.
All values are represented as averages. Statistical analysis was performed using Graphpad Prism 6 one-way analysis of variance and Tukey's multiple comparison test. P value of less than 0.05 is considered statistically significant.

Human-SGLT1 = target: T1, Human-SGLT1 (Homo sapiens, UniProt P13866); assay: SGLT1 glucose transport test ([14C]-labeled methyl a-D-glucopyranoside uptake); assay type: cell-based; conditions: cells stably expressing Human-SGLT1; 37° C., 2 hours
T1 sequence (P13866 1-664): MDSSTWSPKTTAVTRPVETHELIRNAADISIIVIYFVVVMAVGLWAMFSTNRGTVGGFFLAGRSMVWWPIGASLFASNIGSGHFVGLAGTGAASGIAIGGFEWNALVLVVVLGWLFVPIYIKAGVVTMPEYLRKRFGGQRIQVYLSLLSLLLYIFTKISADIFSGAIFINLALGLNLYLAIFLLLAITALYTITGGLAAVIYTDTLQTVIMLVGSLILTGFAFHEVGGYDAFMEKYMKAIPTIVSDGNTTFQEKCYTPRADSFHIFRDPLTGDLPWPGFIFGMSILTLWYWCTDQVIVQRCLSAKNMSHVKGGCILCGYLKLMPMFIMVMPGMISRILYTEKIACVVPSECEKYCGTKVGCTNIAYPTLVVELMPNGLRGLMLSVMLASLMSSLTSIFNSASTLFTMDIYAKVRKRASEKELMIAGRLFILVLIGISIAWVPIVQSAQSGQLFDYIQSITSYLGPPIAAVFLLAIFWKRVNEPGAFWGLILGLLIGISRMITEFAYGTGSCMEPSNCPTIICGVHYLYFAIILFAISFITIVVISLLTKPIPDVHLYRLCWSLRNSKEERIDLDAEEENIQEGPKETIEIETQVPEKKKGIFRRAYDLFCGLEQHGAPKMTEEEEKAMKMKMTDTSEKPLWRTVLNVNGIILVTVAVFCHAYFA
Description: Biological Activity Experiment 1: SGLT1 Glucose Transport Test.
1. Purpose of the Experiment:
The effect of the compound on the glucose transport activity of SGLT1 transporter was detected by measuring the amount of [′C]-labeled glucose entering cells with high expression of Human-SGLT1.
The cells stably expressing Human-SGLT1 were constructed by Wuxi AppTec(Shanghai) Co., Ltd. SGLT1 cells were laid in Cytostar-T (PerkinElmer) 96-well cell culture plate and cultured overnight in 5% CO2 environment at 37° C.
2.2. SGLT1 Glucose Transport Test.
1) Experimental buffer, including: 10 mM 4-hydroxyethylpiperazineethanesulfonic acid (HEPES), 1.2 mM magnesium chloride (MgCl2), 4.7 mM potassium chloride (KCl), 2.2 mM calcium chloride (CaCl2) and 120 mM sodium chloride (NaCl).
2) Compounds were serially diluted in 100% dimethyl sulfoxide (DMSO) starting at 1 mM and make a 5-folds, 8 points serials compound dilutions.
3) 3 μM [′^4C]-labeled methyl a-D-glucopyranoside was prepared with the experimental buffer.
4) The cells were treated with 49 uL of the experimental buffer, 1 μL of the gradient diluted compound and 50 μL of the 3 μM [^14C]-labeled methyl a-D-lucopyranosid solution at 37° C. for 2 hours.
5) The data were read with an isotope detector Micro beta Reader.
6) The IC50 value of the tested compound was obtained by the calculation formula: log(inhibitor) vs. response—Variable slope, using GraphPad Prism 5.0 software.

db/db mice [1] = assay: Random blood glucose in diabetic db/db mice; assay type: in vivo; conditions: mean±S.E.M.
Description: (§1) Experimental Example 4: Study on the In Vivo Pharmacodynamics in Diabetic Db/Db Mice
The animals were kept in an animal breeding room with strictly controlled environmental conditions after they arrived. The animal breeding room was maintained at a temperature of 20-24° C. and a humidity of 40-70%. The temperature and humidity in the feeding room were monitored in real time by a hygrothermograph, and the temperature and humidity were recorded twice daily (one in the morning and the other in the afternoon). The lighting of the animal feeding room was controlled by an on-off electronic timing system, with lights for 12 hours and dark for 12 hours daily (turned on at 7:00 a.m. and turned off at 19:00 p.m). The mice were raised in separate cages and were given free access to feed (reproductive feed 17053113 for rats and mice, available from Beijing Keao Xieli Feed Co., Ltd.) and water during the experiment.
(§2) During the experiment, the animals were administrated with the corresponding vehicles or drugs according to the group with an administration time of 16:00 and an administration period of 8 weeks.
(§3) The dose was 5 mg/kg from week 1 to week 4; and the dose was 10 mg/kg from week 5 to week 8.
Random and fasting blood glucose levels were measured once a week.
The random blood glucose level was measured at 10:00 a.m.
(§4) All of the data were entered into an Excel document and expressed in the form of mean±S.E.M. The differences between groups were compared using graphpad Prism 6 software and one-way analysis of variance (ANOVA). P value of less than 0.05 is considered a significant difference.

db/db mice [2] = assay: Oral glucose tolerance test (OGTT) at week 8 in diabetic db/db mice; assay type: in vivo; conditions: 5 mg/kg weeks 1-4, 10 mg/kg weeks 5-8, once daily, fasted 6 hours, glucose 2 g/kg, mean±S.E.M.
Description: as §1, §2, §3
At the end of the experiment (i.e. the last 3 days of administration), the animals fasted for 6 hours, then were given a single administration of glucose aqueous solution at a dose of 2 g/kg. The time of the glucose administration was recorded as 0 min. Blood glucose levels of the animals were detected at 0 min before the glucose administration, and 15 min, 30 min, 90 min and 120 min after the glucose administration, respectively. The glucose tolerance curve was drawn according to the data of blood glucose levels vs time, and the area under the curve (AUC) was calculated. The administration was given at 16:00.
as §4

[3] = Week 1, 5 mg/kg intragastric once daily
[4] = Week 2, 5 mg/kg intragastric once daily
[5] = Week 3, 5 mg/kg intragastric once daily
[6] = Week 4, 5 mg/kg intragastric once daily
[7] = Week 5, 10 mg/kg intragastric once daily (5 mg/kg weeks 1-4)
[8] = Week 6, 10 mg/kg intragastric once daily (5 mg/kg weeks 1-4)
[9] = Week 7, 10 mg/kg intragastric once daily (5 mg/kg weeks 1-4)
[10] = Week 8, 10 mg/kg intragastric once daily (5 mg/kg weeks 1-4)

**Q.** For `CS[C@H]1OC(c2ccc(Cl)c(Cc3ccc(C4=CCC(F)(F)CC4)cc3)c2)[C@H](O)[C@@H](O)[C@@H]1O` (stereo partly drawn) [WXD001], which OGTT blood glucose level AUC0-2 hr (SD rats) is on record?
**A.** 832 mmol/L/min

**Q.** And the Urine glucose level (SD rats)?
**A.** 2181.4**** mg/200 g, BW

**Q.** What about the Urine volume (SD rats) of the same molecule?
**A.** 37.58**** mL/200 gBW

**Q.** And the IC50 (Human-SGLT1)?
**A.** 210 nM

**Q.** What does the source list for `CS[C@H]1O[C@@H](c2ccc(C)c(Cc3ccc(C4=CCC(F)(F)CC4)cc3)c2)[C@H](O)[C@@H](O)[C@@H]1O` [WXD003]?
**A.** Random blood glucose (db/db mice [1]; [3]): 14.3 ± 2.28; Random blood glucose (db/db mice [1]; [4]): 15.7 ± 0.88; Random blood glucose (db/db mice [1]; [5]): 13.6 ± 1.40; Random blood glucose (db/db mice [1]; [6]): 13.3 ± 0.81; Random blood glucose (db/db mice [1]; [7]): 14.1 ± 1.28; Random blood glucose (db/db mice [1]; [8]): 10.1 ± 1.26; Random blood glucose (db/db mice [1]; [9]): 12.5 ± 1.23; Random blood glucose (db/db mice [1]; [10]): 14.4 ± 1.77; OGTT blood glucose level AUC0-2 hr (SD rats): 797 mmol/L/min; Urine glucose level (SD rats): 1636.4**** mg/200 g, BW; Urine volume (SD rats): 24.58 mL/200 gBW; IC50 (Human-SGLT1): 49.5 nM; OGTT blood glucose level AUC0-2 hr (db/db mice [2]): 2810 ± 155 mmol/L/min

**Q.** With `CCc1ccc([C@@H]2O[C@H](SC)[C@@H](O)[C@H](O)[C@H]2O)cc1Cc1ccc(C2=CCC(F)(F)CC2)cc1` [WXD010] as the molecule, how does the Random blood glucose (db/db mice [1]; [3]) read?
**A.** 16.7 ± 1.00

**Q.** And the Random blood glucose (db/db mice [1]; [4])?
**A.** 13.5 ± 2.46

**Q.** What about the Random blood glucose (db/db mice [1]; [5]) of the same molecule?
**A.** 14.1 ± 0.97

**Q.** What about the Random blood glucose (db/db mice [1]; [6]) of the same molecule?
**A.** 15.4 ± 1.34

**Q.** What about the Random blood glucose (db/db mice [1]; [7]) of the same molecule?
**A.** 13.2 ± 1.09

**Q.** And the Random blood glucose (db/db mice [1]; [8])?
**A.** 10.6 ± 1.48

**Q.** What about the Random blood glucose (db/db mice [1]; [9]) of the same molecule?
**A.** 9.8 ± 0.82

**Q.** What about the Random blood glucose (db/db mice [1]; [10]) of the same molecule?
**A.** 9.2 ± 0.68

**Q.** What about the IC50 (Human-SGLT1) of the same molecule?
**A.** 14.8 nM

**Q.** And the OGTT blood glucose level AUC0-2 hr (db/db mice [2])?
**A.** 2120 ± 99.2 mmol/L/min
